Assay [1] deals with cells transfected with HLA-Cw*1601. The experiment in a line: CTL stimulation assay (TNF production) with HLA-Cw*1601-transfected cells incubated with peptide. The class given is cell-based. The following applies: six CTL clones from patient MZ2; cells transfected with HLA-Cw*1601 and incubated with nonapeptide. The method, then:
Cotransfectants were tested after 24 or 48 hours for their ability to stimulate the production of tumor necrosis factor (TNF) by CTLs (Traversari et al., Immunogenetics, 235:145-152 (1992)). 1500 CTLs were added in 100 μl of Iscove's medium (Gibco BRL) containing 10% human serum and 20 U/ml r-hu-IL-2 to microwells containing target cells. After 24 hours, the supernatant was collected and its TNF content was determined by testing its cytotoxic effect on cells of WEHI-164 clone 13 (Espevik et al., J. Immunol. Methods, 95:99-105 (1986)) in an MTT colorimetric assay (Hansen et al., J. Cancer, 39:390-396 (1989) and Traversari et al., supra).
Several synthetic peptides were prepared on this basis. Peptides were synthesized on solid phase using F-moc for transient NH2-terminal protection as described by Atherton et al., J. Chem. Soc. Lond. […] Chromium release was measured after 4 hours at 37° C.
From two MLTCs set up with different blood samples of patient MZ2, six CTL clones that recognized the BAGE/HLA-Cw*1601 antigen were derived. […] Vα and Vβ expression were determined as follows: Total RNA from the different CTL clones was prepared by using RNAzol*B (Cinna/Biotecx, Friendswood, Tex.). […] Specificity of TCR Vα and Vβ PCR amplification was assessed by Southern blotting and hybridization with ^32P-labelled Cα or Cβ oligonucleotides internal to the ones used for amplification.

For assay [2], the system named is lymphoblastoid cell line MZ2-EBV. The experiment in a line: peptide sensitization chromium release assay: lysis by CTL 82/82 of peptide-incubated target cells. To be noted: chromium release after 4 hours; for sensitization of target cells to lysis by CTL 82/82: lymphoblastoid cell line from patient MZ2, various peptide concentrations. The format is cell-based, human. On the procedure: (§1) The lysis assay employed was a chromium release assay following Herin et al., Int. J. Cancer, 39:390-396 (1987), which is incorporated herein by reference. The assay, however, is described herein. The target melanoma cells were grown in vitro, and then resuspended at 4×10^7 cells/ml in DMEM, supplemented with DMEM with 10 mM HEPES and 50% FCS, and incubated for 60 minutes at 37° C. with 200 μCi/ml of Na(^51Cr)O4. Labelled cells were washed three times with DMEM, supplemented with 10 mM HEPES. These were then resuspended in DMEM supplemented with 10 mM HEPES and 10% FCS, after which 100 μl aliquots containing 10^3 cells, were distributed into 96 well microplates. Samples of PBLs were added in 100 μl of the same medium, and assays were carried out in duplicate. Plates were centrifuged for 4 minutes at 100 g, and incubated for four hours at 37° C. in a 8% CO2 atmosphere.
(§2) Plates were centrifuged again, and 100 μl aliquots of supernatant were collected and counted. Percentage of ^51Cr release was calculated as follows: [formula]
where ER is observed, experimental ^51Cr release, SR is spontaneous release measured by incubating 10^3 labeled cells in 200 μl of medium alone, and MR is maximum release, obtained by adding 100 μl 0.3% Triton X-100 to target cells.
Several synthetic peptides were prepared on this basis. Peptides were synthesized on solid phase using F-moc for transient NH2-terminal protection as described by Atherton et al., J. Chem. Soc. Lond. Perkin Trans., 1:538-546 (1981) and characterized by mass spectrometry. All peptides were >90% pure as indicated by analytical HPLC. Lyophilized peptides were dissolved at 20 mg/ml in DMSO, diluted at 2 mg/ml in 10 mM acetic acid and stored at […]. Peptides were tested in a CTL stimulation assay with COS-7 cells transfected by HLA-Cw*1601 and incubated with the peptides. They were also tested by chromium release assay as previously described (Boon et al., J. Exp. Med., 152:1184-1193 (1980)). In this peptide sensitization assay, target cells were ^51Cr-labelled for one hour at 37° C. and washed extensively. 1000 target cells were then incubated in 96-well microplates in the presence of various concentrations of peptide for 30 minutes at 37° C. before CTL 82/82 cells were added. Chromium release was measured after 4 hours at 37° C.
The final concentration of peptides during the incubation of the target cells with the CTL is indicated. The arrow indicates the percentage of lysis of MZ2-MEL.43 cells. […] P1.HTR cells were transfected with HLA-Cw*1601 and were incubated with nonapeptide AARAVFLAL (SEQ ID NO: 3). […] Lysis of chromium-labelled cells was tested after 4 hours.

The subject of assay [3] is P1.HTR cells transfected with HLA-Cw*1601. The experiment in a line: chromium release assay: lysis by CTL clone 82/82 of P1.HTR transfected with HLA-Cw*1601 and incubated with peptide. To be noted: P1.HTR transfected with HLA-Cw*1601, 1 μM peptide, lysis tested after 4 hours. The format is cell-based, mouse. The method, then: as §1, §2
where ER is observed, experimental ^51Cr release, SR is spontaneous release measured by incubating 10^3 labeled cells in 200 μl of medium alone, and MR is maximum release, obtained by adding 100 μl 0.3% Triton X-100 to target cells. […]
Several synthetic peptides were prepared on this basis. […] Chromium release was measured after 4 hours at 37° C. […]

As for “AARAVFLAL [Ala Ala Arg Ala Val Phe Leu Ala Leu, BAGE-encoded nonapeptide (amino acids 2-10) recognized in association with HLA-Cw*1601 by CTL 82/82]”, in assay [1], the “response of CTL clones recognizing the BAGE/HLA-Cw*1601 antigen” value is “responded”. For the same sequence, the EC50 in assay [2] (MZ2-EBV targets incubated 30 minutes with peptide, CTL 82/82 added, read-out: peptide concentration giving half-maximal lysis) came out at 30 nM. Also, the “sensitization of target cells to lysis by CTL 82/82” value (from here on “sensitization of target cells”) in assay [2] was “Sensitization of a lymphoblastoid cell line from patient MZ2 to lysis by CTL 82/82 was observed”. For the same sequence, the “lysis by CTL 82/82 of peptide-incubated transfected cells” value in assay [3] is “lysed by CTL 82/82”.
Take ARAVFLALF: in assay [2], the “sensitization of target cells” value is given as “not able to sensitize target cells to lysis”.
As for MAARAVFLA, the “sensitization of target cells” value in assay [2] is given as “not able to sensitize target cells to lysis”.
